Consider one compound from patent US5438046A, “N-heteroaryl substituted derivatives of propanamide useful in the treatment of cardiovascular diseases” (Zambon Group S.p.A., priority 1993, dated 1995).

The target of this test is T1, endothelin converting enzyme (ECE) (Oryctolagus cuniculus, UniProt A0A5F9CTJ8).
T1 construct: The left saphenous artery was removed and cleaned of the surrounding tissue, cut into 2-3 mm length rings; from tissue; host or cells: left saphenous artery rings of male New Zealand rabbits
T1 sequence (A0A5F9CTJ8 1-783): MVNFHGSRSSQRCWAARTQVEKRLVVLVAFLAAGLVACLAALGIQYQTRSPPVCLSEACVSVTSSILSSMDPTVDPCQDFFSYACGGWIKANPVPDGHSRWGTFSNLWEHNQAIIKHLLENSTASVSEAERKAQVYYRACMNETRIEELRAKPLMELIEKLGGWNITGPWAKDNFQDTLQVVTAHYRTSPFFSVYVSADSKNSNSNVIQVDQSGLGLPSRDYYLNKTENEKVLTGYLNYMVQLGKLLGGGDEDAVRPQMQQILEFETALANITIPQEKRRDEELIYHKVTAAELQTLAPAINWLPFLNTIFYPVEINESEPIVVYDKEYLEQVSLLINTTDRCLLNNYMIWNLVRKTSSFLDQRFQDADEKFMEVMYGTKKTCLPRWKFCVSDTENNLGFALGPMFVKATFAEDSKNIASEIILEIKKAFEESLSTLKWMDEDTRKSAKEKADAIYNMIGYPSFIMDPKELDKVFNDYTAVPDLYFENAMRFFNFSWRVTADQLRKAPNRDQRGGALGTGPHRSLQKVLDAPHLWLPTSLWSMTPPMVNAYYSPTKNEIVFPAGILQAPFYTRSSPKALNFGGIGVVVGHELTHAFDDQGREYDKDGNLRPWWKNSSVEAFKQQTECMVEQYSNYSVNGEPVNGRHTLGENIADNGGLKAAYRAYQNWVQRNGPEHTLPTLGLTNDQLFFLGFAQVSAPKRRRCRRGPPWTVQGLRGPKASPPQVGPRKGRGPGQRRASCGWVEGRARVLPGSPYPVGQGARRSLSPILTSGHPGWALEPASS
Kind of test: In vitro ECE-inhibitory activity (inhibition of Big endothelin response in rabbit left saphenous artery rings). In kind it is cell-based, New Zealand rabbits. The conditions noted are these: human Big endothelin 3×10^-8 M, compound contact 30 minutes. As to the method: Male New Zealand rabbits (2.5-3 Kg) were sacrificed with an excess of pentobarbital and blood was drawn. […] This solution was composed of (mM); NaCl, 118; KCl, 4.7; CaCl2, 2.5; KH2 PO4, 1.2; MgSO4, 1.2; NaHCO3, […]; glucose, 11. The preparations were kept under tension and readjusted to 1 g during the equilibration period (1 hour).
After said period, the preparations were exposed to a submaximal concentration of norepinephrine 1 μM which was repeated every 30 minutes until the response was stable. A concentration of acetylcholine 10 μM on the contraction of norepinephrine verified the presence of the endothelium.
After 30 minutes from the last contraction due to norepinephrine, a concentration of human Big endothelin 3×10^-8 M was administered. […] The percentage of ECE-inhibition was expressed as IC50 value (nM).

SMILES strings stand for the structures. pIC50: −log10 of the molar value.

`CC(C)C[C@H](NP(=O)(O)O[C@@H]1O[C@@H](C)[C@H](O)[C@@H](O)[C@H]1O)C(=O)N[C@@H](Cc1c[nH]c2ccccc12)C(=O)O` [Phosphoramidon, N-[N-[[(6-deoxy-α-L-mannopyranosyl)oxy]hydroxyphos-phinyl]-l-leucyl]-L-tryptophan]: the pIC50 (as a rule, the IC50 on a negative log10 scale, so that one unit is a factor of ten) is 7.30.
